Test results reported in patent publication US12358901B2, “KV3 modulators” (priority 2018, dated 2025).

How the values were obtained:
[1] = In vitro metabolic stability study in human hepatocytes; type: in vitro ADME; conditions: for In vitro CLint / Rate constant k: 0.5 uM, human cryopreserved hepatocytes, 37° C.; for Rate constant k: up to 180 min; for clearance in human hepatocytes (in words): compared to pyridine comparator compounds RE11 and RE13
Procedure: The objective of this study was to determine metabolic stability in mixed gender human cryopreserved hepatocytes. Testosterone and 7-Hydroxycoumarin were used as positive controls for Phase I and Phase II metabolism, respectively.
Incubation medium was prepared by combining William's medium E, HEPES buffer 1 M and L-glutamine 200 mM in the following proportions: 88%, 10% and 2%, respectively (440 mL, 50 mL and 10 mL, respectively). The medium obtained was bubbled with carbogen (5% CO2, 95% O2) for 30 minutes prior to use. Cryopreserved hepatocytes were thawed and suspended in incubation medium pre-warmed at 37° C. Cells were centrifuged, re-suspended in medium and counted by means of a haemocytometer (Burker's chamber). Cell viability was measured using the Trypan Blue exclusion test.
Test compounds were separately dissolved in DMF to obtain 50 mM stock solutions that were further diluted in water/acetonitrile 50/50 (v/v) to obtain the corresponding 50 uM working solutions. Testosterone and 7-Hydroxy-Coumarin were dissolved in DMF in order to obtain a 50 mM Testosterone solution and 5 mM 7-Hydroxy-Coumarin solution. These solutions were then diluted in the incubation medium in order to obtain a 1 mM Testosterone working solution and a 500 uM 7-Hydroxy-Coumarin working solution.
10 μL of each working solution, i.e. 50 uM test compound, 1 mM Testosterone and 500 uM of 7-Hydroxy-Coumarin were added to 990 μL of 0.5×10^6 cell suspensions in order to obtain the final concentrations of 0.5 uM, 10 uM and 5 uM, respectively. The concentration of the organic solvent in each incubation was constant and <1% (v/v).
Test compounds were separately incubated at 0.5 uM for 0, 5, 10, 15, 20, 30, 45, 60, 90, 120, 150 and 180 min (12 time points) with mixed gender human cryopreserved hepatocytes at 37° C. in a 24 well plate. At each time point a robotic handling processor aspirated 50 μL of incubation mixture from each well and dispensed it into a refrigerated 96 well plate, containing 100 μL of acetonitrile with the corresponding internal standard 150 ng/mL to stop the reaction. Then an aliquot of water (120 uL) was added to equilibrate the organic solvent content at 37%. Samples were centrifuged (ca. 3500 g for 10 minutes) prior to LC MS/MS analysis.
Metabolic stability was calculated from the peak area ratio of the remaining test compound with internal standard versus time.
The intrinsic clearance (CLint) was determined from the first order elimination constant k (min^−1) (obtained from GraphPad by plotting the natural logarithm of the peak area ratio of the remaining test item with internal standard versus time), using the actual volume of the incubation V (mL), the amount of hepatocytes in the incubation M (million cells) and the hepatocellularity number per g liver Hn (120 for human).
Values for CLint were expressed as mL/min/g liver.

[2] = Determination of brain tissue binding (equilibrium dialysis); type: in vitro ADME; conditions: Sprague Dawley, rat whole brain homogenate, 5 h at 37° C.
Procedure: Sprague Dawley rat whole blood, collected on the week of the experiment using K3-EDTA as an anti-coagulant, is diluted with isotonic phosphate buffer 1:1 (v/v). Sprague Dawley rat whole brain, stored frozen at −20° C., is thawed and homogenised in artificial cerebrospinal fluid (CSF) 1:2 (w/v).
An appropriate amount of test compound is dissolved in DMSO to give a 10 millimolar solution. Further dilutions, to obtain a 166.7 micromolar working solution are then prepared using 50% acetonitrile in MilliQ water. This working solution is used to spike the blood to obtain a final concentration of 0.5 micromolar in whole blood. Similarly, the working solution is used to spike brain samples to obtain a final concentration of 5 micromolar in whole brain. From these spiked blood and brain preparations, control samples (n=3), are immediately extracted and used to calculate the initial recovery of the test items.
150 microL of compound-free buffer (isotonic phosphate buffer for blood or artificial CSF buffer for brain) is dispensed in one half-well and 150 microL of spiked matrix (blood or brain) is loaded in the other half-well, with the two halves separated by a semi-permeable membrane. After an equilibration period of 5 h at 37° C., 50 microL of dialysed matrix (blood or brain) is added to 50 microL of corresponding compound-free buffer, and vice-versa for buffer, such that the volume of buffer to matrix (blood or brain) remains the same. Samples are then extracted by protein precipitation with 300 microL of acetonitrile containing rolipram (control for positive ionization mode) or diclofenac (control for negative ionization mode) as internal standards and centrifuged for 10 min at 3000 rpm. Supernatants are collected (100 microL), diluted with 27% AcN in MilliQ water (200 microL) and then injected into an HPLC-MS/MS or UPLC-MS/MS system to determine the concentration of test compound present.
Blood and brain tissue binding are then determined using the following formulas: Afu=Buffer/Blood or Afu=CSF/Brain
Where Afu=apparent fraction unbound; Buffer=analyte/internal standard ratio determined in the buffer compartment; Blood=analyte/internal standard ratio determined in the blood compartment; Brain=analyte/internal standard ratio determined in the brain compartment.
[formula] where: fucr=Fraction unbound corrected; D=matrix dilution factor (D=2 for blood and D=3 for brain).
Then: % Binding=(1−fucr)×100 % Unbound=100−% Bound Brain/Blood Partition Ratio (Kbb) Determination

Q: Which “In vitro CLint” value [1] does the source give for `CC[C@H]1NC(=O)N(c2cnc(Oc3ccc(C)c4c3C3(CC3)CO4)cn2)C1=O` [Example 9, (5R)-5-ethyl-3-[5-(7-methylspiro[2H-benzofuran-3,1′-cyclopropane]-4-yl)oxypyrazin-2-yl]imidazolidine-2,4-dione] here?
A: 1.03 mL/min/g liver

Q: What about the Rate constant k [1] of the same molecule?
A: 0.004 min⁻¹

Q: And the “clearance in human hepatocytes (in words)” value [1]?
A: low clearance

Q: And the fraction unbound at 5 h, 5 micromolar [2]?
A: 0.03

Q: For `CC[C@H]1NC(=O)N(c2cnc(Oc3cccc4c3C3(CC3)CO4)cn2)C1=O` [Example 10, (5R)-5-ethyl-3-(5-spiro[2H-benzofuran-3,1′-cyclopropane]-4-yloxypyrazin-2-yl)imidazolidine-2,4-dione], which “In vitro CLint” value [1] is on record?
A: 0.70 mL/min/g liver

Q: What about the Rate constant k [1] of the same molecule?
A: 0.003 min⁻¹

Q: What about the “clearance in human hepatocytes (in words)” value [1] of the same molecule?
A: low clearance

Q: And the fraction unbound at 5 h, 5 micromolar [2]?
A: 0.087

Q: For `Cc1ccc(Oc2ncc(N3C(=O)NC(C)(C)C3=O)cn2)c2c1OCC21CC1` [RE5, reference compound], which “In vitro CLint” value [1] is on record?
A: 0.31 mL/min/g liver

Q: And the Rate constant k [1]?
A: 0.002 min⁻¹

Q: What about the fraction unbound at 5 h, 5 micromolar [2] of the same molecule?
A: 0.051

Q: With `CC[C@H]1NC(=O)N(c2ccc(Oc3ccc(C)c4c3C3(CC3)CO4)nc2)C1=O` [RE11, reference compound] as the molecule, how does the “In vitro CLint” value [1] read?
A: 3.58 mL/min/g liver

Q: What about the Rate constant k [1] of the same molecule?
A: 0.02 min⁻¹

Q: And the fraction unbound at 5 h, 5 micromolar [2]?
A: 0.021

Q: Which “In vitro CLint” value [1] does the source give for `CC[C@H]1NC(=O)N(c2ccc(Oc3cccc4c3C3(CC3)CO4)nc2)C1=O` [RE13, (5R)-5-ethyl-3-(6-spiro[2H-benzofuran-3,1′-cyclopropane]-4-yloxy-3-pyridyl)imidazolidine-2,4-dione, reference compound] here?
A: 2.16 mL/min/g liver

Q: What about the Rate constant k [1] of the same molecule?
A: 0.009 min⁻¹

Q: What about the fraction unbound at 5 h, 5 micromolar [2] of the same molecule?
A: 0.062
